Laboratory results from paper PMC449707 (BMC Pharmacology, 2004).

System: whole bone marrow cells
Assay: Fibroblastic colony forming unit
Assay type: cell-based, rat
Settings: for effect on colony number of co-treatment with exogenous PGE2: 10 μM PDE inhibitor plus PGE2 as low as 0.1 nM; for effect on colony number, agent alone: 10 μM, CFU-f assay, no exogenous PGE2

SMILES	effect on colony number of co-treatment with exogenous PGE2	effect on colony number, agent alone
CC(C)Cn1c(=O)n(C)c(=O)c2[nH]cnc21 [IBMX, isobutylmethylxanthine]	almost maximal responses	significant stimulation in colony number
COc1ccc(C2CNC(=O)C2)cc1OC1CCCC1 (stereo not shown) [rolipram]	almost maximal responses	significant stimulation in colony number
